Measured values reported in PubChem BioAssay AID1963869 (Molecular Pharmacology Branch, DTP, NCI, 2024).
pIC50: −log10 of the molar value.

Test system: KRAS patient-derived spheroids with HUVEC/MSC, viability
Assay: Anticancer human tumor 323965-272-R-J2-PDC patient-derived pancreatic carcinoma cell line growth inhibition [KRAS2]
Details: for pIC50: curve of first compound; for viability, T/C: stronger effect = lower value
Procedure, shortened: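 KRAS-mutant tumor cells were grown as spheroids with HUVEC endothelial cells and human MSCs as stroma. Targeted agents were tested alone and with KRAS pathway inhibitors. Doses started at or near clinical Cmax, or 10 microM, descending half-log.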
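Also: spheroids exposed to agents for 7 days.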
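For viability, T/C in this document: 100% = DMSO vehicle control viability.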

SMILES: Cn1ncnc1[C@H]1c2n[nH]c(=O)c3cc(F)cc(c23)N[C@@H]1c1ccc(F)cc1 + COc1cc2nc(C)nc(NC(C)c3cc(N)cc(C(F)(F)F)c3)c2cc1OC1CCOC1
- pIC50 (second compound 0.1 µM): < 7.00
- pIC50 (second compound 0.316 µM): < 7.00
- pIC50 (second compound 1 µM): < 7.00
- pIC50 (second compound 3.16 µM): < 7.00
- pIC50 (second compound 10 µM): < 7.00
- viability, T/C (second compound 0.1 µM, first compound 0.000316 µM): 85.1%
- viability, T/C (second compound 0.1 µM, first compound 0.001 µM): 82.1%
- viability, T/C (second compound 0.1 µM, first compound 0.00316 µM): 86.3%
- viability, T/C (second compound 0.1 µM, first compound 0.01 µM): 73.6%
- viability, T/C (second compound 0.1 µM, first compound 0.0316 µM): 76%
- viability, T/C (second compound 0.1 µM, first compound 0.1 µM): 70%
- viability, T/C (second compound 0.316 µM, first compound 0.000316 µM): 79.1%
- viability, T/C (second compound 0.316 µM, first compound 0.001 µM): 81.4%
- viability, T/C (second compound 0.316 µM, first compound 0.00316 µM): 71.9%
- viability, T/C (second compound 0.316 µM, first compound 0.01 µM): 74.9%
- viability, T/C (second compound 0.316 µM, first compound 0.0316 µM): 65.2%
- viability, T/C (second compound 0.316 µM, first compound 0.1 µM): 61.5%
- viability, T/C (second compound 1 µM, first compound 0.000316 µM): 73.3%
- viability, T/C (second compound 1 µM, first compound 0.001 µM): 80.5%
- viability, T/C (second compound 1 µM, first compound 0.00316 µM): 69%
- viability, T/C (second compound 1 µM, first compound 0.01 µM): 67.2%
- viability, T/C (second compound 1 µM, first compound 0.0316 µM): 63.8%
- viability, T/C (second compound 1 µM, first compound 0.1 µM): 58.1%
- viability, T/C (second compound 3.16 µM, first compound 0.000316 µM): 79.8%
- viability, T/C (second compound 3.16 µM, first compound 0.001 µM): 71.6%
- viability, T/C (second compound 3.16 µM, first compound 0.00316 µM): 69.6%
- viability, T/C (second compound 3.16 µM, first compound 0.01 µM): 64.4%
- viability, T/C (second compound 3.16 µM, first compound 0.0316 µM): 65.2%
- viability, T/C (second compound 3.16 µM, first compound 0.1 µM): 61%
- viability, T/C (second compound 10 µM, first compound 0.000316 µM): 75.1%
- viability, T/C (second compound 10 µM, first compound 0.001 µM): 79.8%
- viability, T/C (second compound 10 µM, first compound 0.00316 µM): 76.8%
- viability, T/C (second compound 10 µM, first compound 0.01 µM): 78.4%
- viability, T/C (second compound 10 µM, first compound 0.0316 µM): 67%
- viability, T/C (second compound 10 µM, first compound 0.1 µM): 62.4%
